Data set [1] in a line: Lipophilicity, log P of the compound. The settings on record: octanol/water. The format is physicochemical.
For a further data set, the system named is LNCaP. Put plainly: Growth inhibition of human LNCAP cells at 10 uM after 24 hrs by MTT assay. It counts as functional. The settings on record: read-out: GI. (Tetrazolium dyes change colour on reduction, which living cells bring about.)
The subject of the next data set is K562. In words: Growth inhibition of human K562 cells at 10 uM after 24 hrs by MTT assay. The settings on record: K562, 24 h, read-out: GI. The format is functional.
For the next data set, the system named is MDA-MB-231. In words: Growth inhibition of human MDA-MB-231 cells at 10 uM after 24 hrs by MTT assay. The settings on record: MDA-MB-231, 24 h, read-out: GI. The format is functional.
Data set [2] deals with Rattus norvegicus. In words: Inhibition of testosterone propionate-induced prostate hyperplasia in Wistar rat assessed as reduction in SIRT1 mRNA level in prostate tissue at 10 mg/kg, ip co-administered with testosterone propionate for 14 days by RT-PCR analysis. It counts as functional, organism-based. More on the design: dose 10 mg/kg. The settings on record: Prostate gland.

Data set [3] deals with Rattus norvegicus. In words: Inhibition of testosterone propionate-induced prostate hyperplasia in Wistar rat assessed as retention of normal cell morphology at 10 mg/kg, ip co-administered with testosterone propionate for 14 days by hematoxylin/eosin staining method. It counts as functional, organism-based. More on the design: dose 10 mg/kg.
The test system of data set [4] is Rattus norvegicus. Put plainly: Inhibition of testosterone propionate-induced prostate hyperplasia in Wistar rat assessed as reduction in histoarchitecture disruption at 10 mg/kg, ip co-administered with testosterone propionate for 14 days by hematoxylin/eosin staining method. The settings on record: Prostate gland. The format is functional, organism-based. More on the design: dose 10 mg/kg.

Data set [5] relates to Rattus norvegicus. In words: Inhibition of testosterone propionate-induced prostate hyperplasia in Wistar rat at 10 mg/kg, ip co-administered with testosterone propionate for 14 days. It counts as functional. To be noted: Prostate gland, 336 h, route intraperitoneal.
Data set [6] relates to Rattus norvegicus. Put plainly: Inhibition of testosterone propionate-induced prostate hyperplasia in Wistar rat assessed as ratio of prostate weight to body weight at 10 mg/kg, ip co-administered with testosterone propionate for 14 days (reference value: 3.1634 +/- 0.1264 no unit). To be noted: route intraperitoneal. It counts as functional, Prostate gland.
The subject of data set [7] is Rattus norvegicus. Put plainly: Inhibition of testosterone propionate-induced prostate hyperplasia in Wistar rat assessed as seminal vesicle weight at 10 mg/kg, ip co-administered with testosterone propionate for 14 days (reference value: 1.6071 +/- 0.0821 g). The format is functional, Prostate gland. The settings on record: route intraperitoneal.
The test system of data set [8] is Rattus norvegicus. In words: Inhibition of testosterone propionate-induced prostate hyperplasia in Wistar rat assessed as prostate weight at 10 mg/kg, ip co-administered with testosterone propionate for 14 days (reference value: 0.838 +/- 0.0293 g). It counts as functional, Prostate gland. The settings on record: route intraperitoneal.
Data set [9] has as its target T1, NAD-dependent protein deacetylase sirtuin-1 (Homo sapiens) (UniProt Q96EB6).
T1 sequence (whole entry): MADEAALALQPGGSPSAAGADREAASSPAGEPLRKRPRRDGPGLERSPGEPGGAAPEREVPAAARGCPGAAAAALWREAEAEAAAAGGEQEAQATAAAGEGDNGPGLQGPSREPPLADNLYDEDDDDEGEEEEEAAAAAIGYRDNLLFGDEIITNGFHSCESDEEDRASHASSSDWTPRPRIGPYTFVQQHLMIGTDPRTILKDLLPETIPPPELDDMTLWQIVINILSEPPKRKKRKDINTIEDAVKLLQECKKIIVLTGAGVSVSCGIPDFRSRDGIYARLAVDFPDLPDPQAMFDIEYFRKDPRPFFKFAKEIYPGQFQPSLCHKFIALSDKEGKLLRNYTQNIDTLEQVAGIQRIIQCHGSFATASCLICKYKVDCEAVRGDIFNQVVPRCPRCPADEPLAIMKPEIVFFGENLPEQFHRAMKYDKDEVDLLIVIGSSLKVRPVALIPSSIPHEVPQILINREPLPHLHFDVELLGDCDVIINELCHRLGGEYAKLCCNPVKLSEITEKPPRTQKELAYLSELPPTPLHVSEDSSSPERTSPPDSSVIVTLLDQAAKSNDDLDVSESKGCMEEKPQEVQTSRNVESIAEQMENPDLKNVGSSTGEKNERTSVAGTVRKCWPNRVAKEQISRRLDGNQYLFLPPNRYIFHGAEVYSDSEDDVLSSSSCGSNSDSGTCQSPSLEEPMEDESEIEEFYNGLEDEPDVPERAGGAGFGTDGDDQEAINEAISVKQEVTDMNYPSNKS
In words: Inhibition of recombinant human SIRT1 using AMC-Arg-His-Lys-Lys(Ac) as substrate at 40 uM after 45 mins by fluorimetric assay.

Data set [10] relates to Rattus norvegicus. In words: Inhibition of testosterone propionate-induced prostate hyperplasia in Wistar rat assessed as retention of normal cell morphology at 5 mg/kg, ip co-administered with testosterone propionate for 14 days by hematoxylin/eosin staining method. The format is functional, organism-based. More on the design: dose 5 mg/kg.
In data set [11] the test system is Rattus norvegicus. Put plainly: Inhibition of testosterone propionate-induced prostate hyperplasia in Wistar rat assessed as reduction in histoarchitecture disruption at 5 mg/kg, ip co-administered with testosterone propionate for 14 days by hematoxylin/eosin staining method. The settings on record: Prostate gland. More on the design: dose 5 mg/kg. It counts as functional, organism-based.

Data set [12] relates to Rattus norvegicus. Put plainly: Inhibition of testosterone propionate-induced prostate hyperplasia in Wistar rat assessed as seminal vesicle weight at 5 mg/kg, ip co-administered with testosterone propionate for 14 days (reference value: 1.6071 +/- 0.0821 g). It counts as functional, Prostate gland. To be noted: route intraperitoneal.
For data set [13], the system named is Rattus norvegicus. Put plainly: Inhibition of testosterone propionate-induced prostate hyperplasia in Wistar rat assessed as ratio of prostate weight to body weight at 5 mg/kg, ip co-administered with testosterone propionate for 14 days (reference value: 3.1634 +/- 0.1264 no unit). The format is functional, Prostate gland. The settings on record: route intraperitoneal.

Data set [14] concerns Rattus norvegicus. Put plainly: Inhibition of testosterone propionate-induced prostate hyperplasia in Wistar rat assessed as prostate weight at 5 mg/kg, ip co-administered with testosterone propionate for 14 days (reference value: 0.838 +/- 0.0293 g). It counts as functional, Prostate gland. The settings on record: route intraperitoneal.

Here are results for 30 compounds from ChEMBL document CHEMBL2434959, “Identification and characterization of novel indole based small molecules as anticancer agents through SIRT1 inhibition” (Eur J Med Chem, 2013).

Broadly, the logP is a log measure of how a compound divides between an organic and an aqueous phase. For orientation: inhibition means the percentage by which the read-out fell short of the control. As usually defined, the inhibition in vivo is the relative decrease from the control value, in per cent.

The source made the active and inactive calls. The calls are words filed in the database; no cut-off is given here.

With `CC(C)Sc1nnc(-c2c(CNCCCN3CCOCC3)c3ccccc3n2C)n1-c1ccccc1`, the logP in data set [1] worked out at 4.22.
In the case of `CC(C)Sc1nnc(-c2c(CN3CCOCC3)c3ccccc3n2C)n1-c1ccccc1`, the logP in data set [1] is 4.5.
Regarding `COCCNCc1c(-c2nnc(SC(C)C)n2-c2ccccc2)n(C)c2ccc(F)cc12`, the logP in [1] was 4.52. Further, the inhibition of growth at 10 µM with LNCaP was over 50%.
In turn, `CC(C)Sc1nnc(-c2c(CNc3cnccn3)c3ccccc3n2C)n1-c1ccccc1` yielded a logP in [1] of 4.22.
Still for that read-out and setting: the figure for `CC(C)Sc1nnc(-c2c(CNCCN3CCOCC3)c3ccccc3n2C)n1-c1ccccc1` is 4.12; for `CC(C)Sc1nnc(-c2c(CN3CCCCC3C)c3ccccc3n2C)n1-c1ccccc1` (stereo not given) it is 5.95; for `CC(C)Sc1nnc(-c2c(CNCCN3CCOCC3)c3cc(F)ccc3n2C)n1-c1ccccc1` it is 4.28.
Consider `CC1CN(Cc2c(-c3nnc(SC(C)C)n3-c3ccccc3)n(C)c3ccccc23)CC(C)O1` (stereo not given), for which, in data set [1], the logP came out at 5.13.
The compound `CC(C)Sc1nnc(-c2c(CNc3nc4ccccc4[nH]3)c3ccccc3n2C)n1-c1ccccc1` displayed a logP in [1] of 5.94.
On the same count and under the same terms, for `COCCNCc1c(-c2nnc(SC(C)C)n2-c2ccccc2)n(C)c2ccccc12` the value was 4.36.
`COc1cc(NCc2c(-c3nnc(SC(C)C)n3-c3ccccc3)n(C)c3ccc(F)cc23)cc(OC)c1OC` returned a logP in data set [1] of 5.96. Moreover, the inhibition of growth at 10 µM in the data set on K562 is over 50%.
On to `CC(C)Sc1nnc(-c2c(CNC3CC3)c3cc(F)ccc3n2C)n1-c1ccccc1`, for which the logP in [1] came to 4.97. In addition, the inhibition of growth at 10 µM with MDA-MB-231 and in the data set on K562 was over 50% in each case.
In data set [1], `CC(C)Sc1nnc(-c2c(CNCCN3CCCC3)c3ccccc3n2C)n1-c1ccccc1` had a log partition coefficient (logP) of 4.83.
Regarding `CC1CCN(Cc2c(-c3nnc(SC(C)C)n3-c3ccccc3)n(C)c3ccccc23)CC1`, in data set [1], the logP amounted to 5.96. The inhibition of growth at 10 µM in the data set on K562 was found to be 88%.
Taken in the same sequence, the figures for `CC(C)Sc1nnc(-c2c(CNCC3CC3)c3ccccc3n2C)n1-c1ccccc1` were 5.24 and over 50%.
For the compound `CC1CCCN(Cc2c(-c3nnc(SC(C)C)n3-c3ccccc3)n(C)c3ccccc23)C1` (stereo not given), the logP in [1] worked out at 6.03. Besides, the inhibition of growth at 10 µM in the data set on MDA-MB-231 was over 50%.
In turn, `CC(C)Sc1nnc(-c2c(CNCCCN3CCOCC3)c3cc(F)ccc3n2C)n1-c1ccccc1` showed a lipophilicity (logP) in [1] of 4.38.
Take `COc1ccc(CNCc2c(-c3nnc(SC(C)C)n3-c3ccccc3)n(C)c3ccccc23)cc1`: the logP in [1] amounted to 6.27. In the data set with MDA-MB-231, the inhibition of growth at 10 µM is over 50%.
In data set [1], `COc1ccc(CNCc2c(-c3nnc(SC(C)C)n3-c3ccccc3)n(C)c3ccc(F)cc23)cc1` registered a logP of 6.42. Besides, the inhibition result in the data set on Rattus norvegicus [2], in the data set with Rattus norvegicus [3] and in the data set with Rattus norvegicus [4] was “Active” each time. Moreover, the inhibition in vivo at 10 mg/kg in the data set with Rattus norvegicus [5] was 70.5%. In the data set with Rattus norvegicus [6], the Ratio was 0.002298. The Activity was found to be 0.619 g in the data set with Rattus norvegicus [7] and 0.537 g with Rattus norvegicus [8]. For the same compound, in [9], the inhibition worked out at 70%. Further, the inhibition of growth at 10 µM in the data set with LNCaP and in the data set with MDA-MB-231 was over 50% each time.
`CC1CCCN(Cc2c(-c3nnc(SC(C)C)n3-c3ccccc3)n(C)c3ccc(F)cc23)C1` (stereo not given): the logP in data set [1] was 6.18. The inhibition of growth at 10 µM in the data set with MDA-MB-231 is over 50%.
Consider `CC(C)Sc1nnc(-c2c(CN3CCOCC3)c3cc(F)ccc3n2C)n1-c1ccccc1`, for which, in data set [1], the logP is 4.65. In the data set on K562, the inhibition of growth at 10 µM worked out at 88%.
The compound `CC1CCN(Cc2c(-c3nnc(SC(C)C)n3-c3ccccc3)n(C)c3ccc(F)cc23)CC1` had a logP in data set [1] of 6.12. Besides, the inhibition of growth at 10 µM in the data set with LNCaP and with MDA-MB-231 was over 50% throughout.
With `COc1cccc(CNCc2c(-c3nnc(SC(C)C)n3-c3ccccc3)n(C)c3ccc(F)cc23)c1`, the log partition coefficient (logP) in [1] is 6.42. Also, in the data set on MDA-MB-231, the inhibition of growth at 10 µM is over 50%.
The like results for `COc1cccc(CNCc2c(-c3nnc(SC(C)C)n3-c3ccccc3)n(C)c3ccccc23)c1` were, in that order, 6.27 and over 50%.
In data set [1], `COc1cc(NCc2c(-c3nnc(SC(C)C)n3-c3ccccc3)n(C)c3ccccc23)cc(OC)c1OC` returned a logP of 5.8.
Turning to `CC(C)Sc1nnc(-c2c(CNCC3CC3)c3cc(F)ccc3n2C)n1-c1ccccc1`, the logP in data set [1] is 5.4. In addition, the inhibition of growth at 10 µM in the data set on MDA-MB-231 and with K562 was over 50% each time.
In [1], `CC(C)Sc1nnc(-c2c(CNC3CC3)c3ccccc3n2C)n1-c1ccccc1` yielded a lipophilicity (logP) of 4.81.
Same read-out and setting: the figure for `CC(C)Sc1nnc(-c2c(CN3CCC(N4CCCC4)CC3)c3ccccc3n2C)n1-c1ccccc1` is 5.16.
`CC(C)(C)NC(=O)[C@H]1CC[C@H]2[C@@H]3CC[C@H]4NC(=O)C=C[C@]4(C)[C@H]3CC[C@]12C` [FINASTERIDE]: the inhibition entry with Rattus norvegicus [10] and in the data set on Rattus norvegicus [11] was “Active” throughout. Moreover, the Activity with Rattus norvegicus [12] came out at 0.9051 g; with Rattus norvegicus [14], 0.556 g. Further, the Ratio with Rattus norvegicus [13] is recorded as 0.002471.
In turn, `CC(C)Sc1nnc(-c2c(CNCCN3CCCC3)c3cc(F)ccc3n2C)n1-c1ccccc1` displayed a logP in data set [1] of 4.99.
